Results as given in US20170002373A1, “METHOD OF PRODUCING LEAFY BIOMASS” (Imperial Innovations Limited, priority 2009, published 2017).

Key:
GFP-6 calli = assay: Shoot induction from transplastomic calli on solid MS medium; format: cell-based, Nicotiana tabacum Petit Havana; settings: data not shown; for shoot formation from calli: GFP-6 calli grown on solid MS medium with TDZ, shoots after 6 weeks
[1] = test system: transplastomic cell suspensions from the tobacco GFP-6 line; assay: Shoot/leafy biomass production from cell suspensions in temporary immersion bioreactor; format: cell-based, Nicotiana tabacum Petit Havana; settings: 2-L temporary immersion bioreactor, MS media supplemented with 0.1 μM TDZ, after about six weeks
Description: Given that transplastomic gene expression seemed to be highest in leaf tissue we sought to develop a method for the rapid production of leaf tissue from callus/cell suspensions. […] In order to scale up the production capacity, transplastomic cell suspensions from the tobacco GFP-6 line were loaded into a 2-L bioreactor and temporally submerged in MS media supplemented with 0.1 μM TDZ. […] During the first 14 days, no growth could be detected and shoots only started to grow after this period. Possibly this lag period is related to the time needed for cells to redifferentiate from callus tissue to leafy tissue in tobacco in a similar manner to the observed switch between calli and meristematic tissues in Arabidopsis thaliana (Gordon et al, 2007).
Tobacco biomass was generated by placing about 7 grams of Nicotiana tabacum Petit Havana cell suspensions in a 2-L temporary immersion bioreactor (Ducos et al, 2007). Immersions were performed over a 40-day period with 1-L MS media supplemented with 0.1 μM Thidiazuron (TDZ, Sigma, UK) every three hours for 5 min. Additionally, the media contained 100 mg/L of spectinomycin to prevent contamination and to select for transplastomic cells. The TDZ (Thidiazuron) concentration in MS media was estimated to be optimal at 0.1 μM by researchers in Nestle, based on calli solid induction in Petri dishes (data not shown). […]

**Q.** Which results are given for `O=C(Nc1ccccc1)Nc1cnns1` [Thidiazuron]?
**A.** shoot formation from calli (GFP-6 calli): able to induce shoot formation; shoot formation from calli (GFP-6 calli; listed as thidiazuron): induced the formation of shoots from calli; optimal TDZ concentration in MS media (GFP-6 calli; based on calli solid induction in Petri dishes, estimated by researchers in Nestle): 0.1 µM; shoot formation from cell suspensions [1]: a large number of shoots were produced
